{
  "source": "patent US5602156A",
  "about": "“Method for inhibiting metalloproteinase expression” (The United States of America as represented by the …, priority 1994, dated 1997)",
  "key": {"arachidonic acid release": {"test_system": "arachidonic acid release", "conditions": "cited from earlier work"}, "MMP-2 [1]": {"test_system": "MMP-2", "test": "Western immunoblot of MMP-2 species in conditioned media", "format": "cell-based, human", "procedure": "(§1) Conditioned media for zymogram and Western blot analysis were produced under serum-free conditions. Cells (2 million) were plated in 25 cm^2 flasks in serum-containing medium and cultured overnight. Serum-containingmedium was removed and the cell monolayers were washed twice with DMEM/ITS (DMEM containing insulin (5 μg/mL), transferrin (5 μg/mL), and selenium (5 ng/mL)). The resultant cells were fed with 3 mL of DMEM/ITS and additives as described in the Examples for two 24 hour periods. Conditioned media samples were collected at 24 hours and cells were refed with fresh DMEM/ITS containing the described additives for an additional 24 hours. Conditioned media samples were centrifuged to remove cells and debris then frozen at -20° C. until use. Freeze and thaw cycles of the conditioned media were limited to no more than two.\nThis example illustrates the dose-dependent effects of compound 1 on the presence of MMP-2 and its activated species. Western immunoblots were used to detect the effect of compound 1 on the presence of MMP-2 and its activated species and for crude quantitation of MMP-2 presence.\nA2058 and HT1080 conditioned media samples were concentrated 10-fold using ultrafiltration units excluding material of less than 10 or 30 kDa in molecular weight. Aliquots of 15 μL were electrophoresed on 4-20% gradient PAGE gels, electrically transferred to membranes and immunoblotted with specific polyclonal antibody to proMMP-2. This antibody, made to the MMP-2/TIMP-2 complex recognizes the latent and activated MMP-2 species and crossreacts with TIMP-2 (21 kDa)."}, "MMP-1": {"test_system": "MMP-1", "test": "Northern blot of MMP-1 mRNA from A2058 cells", "format": "cell-based, human", "conditions": "2 μM", "procedure": "This example illustrates the effect of compound 1 on MMP-1 and MMP-2 mRNA from A2058 cells using Northern blot analysis.\nTotal cytoplasmic RNA was purified from A2058 cells using cesium chloride density centrifugation. Cells were treated with DMSO vehicle (0.05 %) or compound 1 (2 μM) for 24 or 48 hr. Total RNA yields from treated and control cells (μg/10^6 cells) were similar. Aliquots (5 μg) of total RNA were denatured and separated on formaldehyde-1% agarose slab gels, passively transferred to GeneScreen, and crosslinked using ultraviolet light exposure. RNA was hybridized in buffer (50% deionized formamide, 5x SSC, 10 mM Tris HCl pH 7.5, 1x Denharts solution without albumin, 1.0% SDS, and 0.125 mg/mL salmon sperm DNA) containing 10^6 counts/mL of ^32 P- labeled probe of either MMP-2, MMP-1, or with GAPDH which was used as a measure of RNA load. Probes were labeled to high specific activity with ^32 P-dCTP using a random primer labeling protocol. The cDNA probes for the MMP-2, MMP-1, and GAPDH have been described. See, Brown, et al., Cancer Res. 50:6184-6191 (1990); Templeton, et at., Cancer Res. 50:5431-5437 (1990); and Fort, et al., Nucleic Acids Res. 13:1431-1441 (1985). Radiolabeled bands were quantitated using laser densitometric analysis of autoradiography bands. […]"}, "gelatinase activity": {"test_system": "gelatinase activity", "test": "Gelatin zymography of A2058 and HT1080 cells, compound 1 with or without TGF-β1 (results in words)", "format": "cell-based, human", "procedure": "(§2) A2058 and HT1080 cells were incubated with compound 1 (2 μM), with or without TGF-β1 (5 ng/mL) for 24 and 48 hours prior to harvest of conditioned media. Aliquots were subjected to gelatin zymography as described in Example 1. Known concentrated conditioned medium from HT1080 cells was used for identification of the gelatinase species (92 kDa, gelatinase B/MMP-9; 72 kDa, gelatinase A/MMP-2 latent form; 65 kDa intermediate and 62 kDa activated forms of MMP-2).\n(§3) Lane 1 is the control resulting from treatment of the cells with 0.1% DMSO. Lanes 2 and 3 correspond to those cells which are treated with 2 μM compound 1 in the absence of TGF-β1 for 24 and 48 hours, respectively. Lane 4 corresponds to cells which have been treated with TGF-β1 in the absence of compound 1. Lane 5 corresponds to cells which have been treated with TGF-β1 for 48 hours with compound 1 being added to the incubation mixture for the final 24 hours. Lane 6 corresponds to cells which have been treated for 48 hours with both TGF-β1 and compound 1."}, "MMP-2 [2]": {"test_system": "MMP-2", "test": "Gelatin zymography of HT1080 cells, compound 1 with or without TGF-β1 (densitometry)", "format": "cell-based, human", "conditions": "control band = 100%", "procedure": "as §1\n(§4) A2058 human melanoma cells, human HT1080 fibrosarcoma cells, and OVCAR3 human ovarian cancer cells were incubated with increasing concentrations of compound 1 (0.2-20 μM) or DMSO control (0.05%) and subjected to gelatin zymography. Aliquots of conditioned medium (15 μL) were electrophoresed on gelatin-containing 10% PAGE gels under nonreducing but denaturing conditions. These conditions allow the different gelatin-degrading species (MMPs) to separate by size. The enzymes renature after removal of the SDS by incubation of the gel with 2.5 % Triton X-100, and degrade the gelatin substrate present in the polyacrylamide gel upon overnight incubation in low salt collagenase buffer. Bands of clearing, seen after Coomassie blue staining correspond to areas of gelatinase activity.\nas §2, §3\n(§5) *The control band was defined as 100% gelatinase activity and the other\n(§6) bands were normalized to it. Numbers reflect triplicate measurements from\n(§7) each zymogram band of representative zymograms. Standard deviations, not"}, "MMP-2 [3]": {"test_system": "MMP-2", "test": "Gelatin zymography of A2058 cells, compound 1 with or without TGF-β1 (densitometry)", "format": "cell-based, human", "conditions": "control band = 100%", "procedure": "as §1, §4, §2, §3, §5, §6, §7"}, "[4]": {"conditions": "with TGF-β, 2 μM compound 1, 24 hr"}, "[5]": {"conditions": "with TGF-β, 2 μM compound 1, 48 hr"}, "[6]": {"conditions": "without TGF-β, 2 μM compound 1, 24 hr"}, "[7]": {"conditions": "without TGF-β, 2 μM compound 1, 48 hr"}, "[8]": {"conditions": "with TGF-β1, 2 μM compound 1, 24 hr"}, "[9]": {"conditions": "with TGF-β1, 2 μM compound 1, 48 hr"}, "[10]": {"conditions": "without TGF-β1, 2 μM compound 1, 24 hr"}, "[11]": {"conditions": "without TGF-β1, 2 μM compound 1, 48 hr"}},
  "data": [
    {"smiles": "NC(=O)c1nnn(Cc2cc(Cl)c(C(=O)c3ccc(Cl)cc3)c(Cl)c2)c1N", "note": "[Compound 1, 5-amino-l-(4-(4-chlorobenzoyl)-3,5-dichlorobenzyl)-1,2,3-triazole-4-carboxamide]", "values": [
      {"measurement": "arachidonic acid release", "setting": "arachidonic acid release", "value": "inhibits"},
      {"measurement": "presence of the MMP-2 species", "setting": "MMP-2 [1]; A2058 and HT1080, FIG. 4", "value": "dose-dependent reduction of the presence of the MMP-2 species"},
      {"measurement": "presence of the MMP-2 species", "setting": "MMP-2 [1]; A2058 and HT1080, FIG. 4, listed as compound 1", "value": "dose-dependent"},
      {"measurement": "presence of the MMP-2 species", "setting": "MMP-2 [1]; after incubation with 20 μM compound 1", "value": "more complete reduction of all species"},
      {"measurement": "shift of MMP-2 species", "setting": "MMP-2 [1]; before more complete reduction of all species", "value": "shift to the lower molecular weight activated species"},
      {"measurement": "expression of interstitial collagenase MMP-1", "setting": "MMP-1", "value": "inhibits the expression of interstitial collagenase MMP-1"},
      {"measurement": "reduction of gelatinase activity", "setting": "gelatinase activity; A2058 and HT1080, 2 μM, 24 and 48 hr, no TGF-β1", "value": "increased from 24 to 48 hr exposure"},
      {"measurement": "effect on TGF-β1-increased gelatinase activity", "setting": "gelatinase activity; TGF-β1 48 hr, compound 1 over the final 24 hr", "value": "little effect"},
      {"measurement": "effect on TGF-β1-increased gelatinase activity", "setting": "gelatinase activity; TGF-β1 with compound 1 co-incubation for 48 hr", "value": "inhibited"},
      {"measurement": "gelatinase activity, 65 + 62 kDa", "setting": "MMP-2 [2]; [4]", "value": 194, "unit": "%"},
      {"measurement": "gelatinase activity, 72 kDa", "setting": "MMP-2 [2]; [4]", "value": 52, "unit": "%"},
      {"measurement": "gelatinase activity, 65 + 62 kDa", "setting": "MMP-2 [2]; [5]", "value": 116, "unit": "%"},
      {"measurement": "gelatinase activity, 72 kDa", "setting": "MMP-2 [2]; [5]", "value": 10, "unit": "%"},
      {"measurement": "gelatinase activity, 65 + 62 kDa", "setting": "MMP-2 [2]; [6]", "value": 125, "unit": "%"},
      {"measurement": "gelatinase activity, 72 kDa", "setting": "MMP-2 [2]; [6]", "value": 10, "unit": "%"},
      {"measurement": "gelatinase activity, 65 + 62 kDa", "setting": "MMP-2 [2]; [7]", "value": 24, "unit": "%"},
      {"measurement": "gelatinase activity, 72 kDa", "setting": "MMP-2 [2]; [7]", "value": 0.6, "unit": "%"},
      {"measurement": "gelatinase activity, 65 + 62 kDa", "setting": "MMP-2 [3]; [8]", "value": 0, "unit": "%"},
      {"measurement": "gelatinase activity, 72 kDa", "setting": "MMP-2 [3]; [8]", "value": 44, "unit": "%"},
      {"measurement": "gelatinase activity, 65 + 62 kDa", "setting": "MMP-2 [3]; [9]", "value": 0, "unit": "%"},
      {"measurement": "gelatinase activity, 72 kDa", "setting": "MMP-2 [3]; [9]", "value": 36, "unit": "%"},
      {"measurement": "gelatinase activity, 65 + 62 kDa", "setting": "MMP-2 [3]; [10]", "value": 14, "unit": "%"},
      {"measurement": "gelatinase activity, 72 kDa", "setting": "MMP-2 [3]; [10]", "value": 84, "unit": "%"},
      {"measurement": "gelatinase activity, 65 + 62 kDa", "setting": "MMP-2 [3]; [11]", "value": 0, "unit": "%"},
      {"measurement": "gelatinase activity, 72 kDa", "setting": "MMP-2 [3]; [11]", "value": 45, "unit": "%"}
    ]}
  ]
}
